PubChem BioAssay AID1552 (Sanford-Burnham Center for Chemical Genomics, 2009)
Activity calls are given as the source filed them. How the calls were made is not given here.

The molecules below were run against Ubiquitin-conjugating enzyme E2 N (Homo sapiens) (UniProt P61088) (assay: NMR detection of UBE2N ligand binding – biophysical, purified protein (AID 1552)). Conditions: NMR binding to purified UBE2N.
Chain of Ubiquitin-conjugating enzyme E2 N (Homo sapiens) (P61088 whole entry, looked up): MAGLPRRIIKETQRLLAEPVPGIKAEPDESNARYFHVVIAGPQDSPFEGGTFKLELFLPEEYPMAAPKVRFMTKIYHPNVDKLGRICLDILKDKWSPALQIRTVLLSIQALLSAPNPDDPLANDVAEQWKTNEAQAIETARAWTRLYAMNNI

| SMILES | Kd |
| --- | --- |
| C(=N\c1nccs1)/c1cccnc1 | > 4 mM (inactive) |
| CC(=O)Nc1nc(-c2cccs2)cs1 | > 4 mM (inactive) |
| COc1ccc(CC(=O)c2ccc(O)cc2O)cc1 | > 4 mM (inactive) |
| Nc1cc(=O)[nH]c(SCC(=O)NC2CCCCC2)n1 | > 4 mM (inactive) |
| NCCc1cnc[nH]1 | > 4 mM (inactive) |
| COC(=O)c1c(OC)cc2c(c1C)Oc1c(Cl)c(O)c(Cl)c(C)c1C(=O)O2 | > 4 mM (inactive) |
| OC12C=CC(CC1)CC2 | > 4 mM (inactive) |
| Nc1ccc2c(c1)C(=O)OC2 | > 4 mM (inactive) |
| O=C(O)CCc1nc2ccccc2[nH]c1=O | > 4 mM (inactive) |
| Cc1c(O)c(O)cc2c1CC=C1[C@@]2(C)CC[C@@]2(C)C3C[C@](C)(C(=O)O)CC[C@]3(C)CC[C@]12C (stereo partly drawn) | > 4 mM (inactive) |
| O=C(O)c1cc(O)c(O)c(O)c1 | > 4 mM (inactive) |
| Cc1cccc(CO)n1 | > 4 mM (inactive) |
| COC(=O)C1=CCCN(C)C1 | > 4 mM (inactive) |
| [O-][n+]1onc2c1CCc1c-2nn(-c2ccccc2)[n+]1[O-] | > 4 mM (inactive) |
| CC(C)c1ccc(NC(=O)C(N)=O)cc1 | > 4 mM (inactive) |
| CCOC(=O)c1cnc2cc(C)nn2c1C | > 4 mM (inactive) |
| COc1ccc(C)cc1S(=O)(=O)N1CCCCC1 | > 4 mM (inactive) |
| Cc1ccc2nc(NC(=O)CN3CCOCC3)sc2c1 | > 4 mM (inactive) |
| O=C1NC(=Nc2ccccc2Cl)SC1(CO)CO | > 4 mM (inactive) |
| COc1ccc2c(c1)OC[C@@H](Cc1ccc(OC)c(OC)c1)[C@H]2O | > 4 mM (inactive) |
| CC(=O)NC1=C(N(C)C)C(=O)c2ccccc2C1=O | > 4 mM (inactive) |
| CNC(=O)C(=O)Nc1cccc(Cl)c1 | > 4 mM (inactive) |
| CC(=O)NC(C)C12CC3CC(CC(C(=O)O)(C3)C1)C2 (stereo not drawn) | > 4 mM (inactive) |
| COCc1cc(C)nc2sc(C(=O)OC)c(N)c12 | > 4 mM (inactive) |

| SMILES | Kd |
| --- | --- |
| COc1cc(-c2nnc(NC(C)=O)o2)cc(OC)c1OC | > 4 mM (inactive) |
| CNC(=S)N1CCN=C1Nc1nc(C)cc(C)n1 | > 4 mM (inactive) |
| Nc1nc(-c2ccc(O)cc2)cs1 | > 4 mM (inactive) |
| COC(=O)Nc1c(C)n(C)n(-c2ccccc2)c1=O | > 4 mM (inactive) |
| NNC(=O)c1ccccc1-n1cccc1 | > 4 mM (inactive) |
| Cc1ccsc1/C=c1\sc2ncnn2c1=O | > 4 mM (inactive) |
| Cc1cc(=O)n2ncn(Cc3ccccc3)c2n1 | > 4 mM (inactive) |
| C[C@H]1[C@H](C)CC[C@]2(CO)CC[C@]3(C)C(=CCC4[C@@]5(C)CC[C@H](O)C(C)(C)C5CC[C@]43C)[C@H]12 (stereo partly drawn) | > 4 mM (inactive) |
| CC(C)[C@@H]1CC[C@@H](C)C[C@H]1O | > 4 mM (inactive) |
| C/C=C(\C)C(=O)OC1[C@@H]2C=C3C(CC[C@]4(C)C3CC(=O)O[C@H]4c3ccoc3)C(C)(C2=O)[C@@H](C(O)C(=O)OC)C1(C)C (stereo partly drawn) | > 4 mM (inactive) |
| COC(=O)C[C@H]1C(C)(C)C(=O)[C@@H]2CC3=C(CC[C@]4(C)C3=CC(=O)O[C@H]4c3ccoc3)C1(C)C2=O | > 4 mM (inactive) |
| CCN1CCC2(CC1)CC1CC3C=CC1(CN2C(C)=O)O3 (stereo not drawn) | > 4 mM (inactive) |
| CNC(=S)Nc1cccc(C(=O)O)c1 | > 4 mM (inactive) |
| CCn1c(C)c(C(C)=O)c(N2CCN(C)CC2)nc1=S | > 4 mM (inactive) |
| CCn1c2ccccc2c2nn(C)c(=N)nc21 | > 4 mM (inactive) |
| CCOC(=O)C1CCN(c2ccc(C#N)cc2)CC1 | > 4 mM (inactive) |
| O=C(O)C1CCN(C(=O)c2cccs2)CC1 | > 4 mM (inactive) |
| Cn1cnnc1SCCCNC(=O)Nc1ncccn1 | > 4 mM (inactive) |
| O=C1NCC(=O)N2CCc3ccccc3C12 (stereo not drawn) | > 4 mM (inactive) |
| Cc1cc(N)no1 | > 4 mM (inactive) |
| CC1CCN(S(=O)(=O)N(C)C)CC1 | > 4 mM (inactive) |
| O=C(Nn1cnnc1)c1ccccc1-c1ccccc1 | > 4 mM (inactive) |
| COCC(=O)Nc1cccc2ccccc12 | > 4 mM (inactive) |
| Cn1ncc(N2CCOCC2)c(Cl)c1=O | > 4 mM (inactive) |

| SMILES | Kd |
| --- | --- |
| COc1cc(C)c(Cl)cc1S(=O)(=O)N(C)C | > 4 mM (inactive) |
| NCc1ccc2c(c1)OCCO2 | > 4 mM (inactive) |
| COc1ccc(C(N)=O)cc1NC(C)=O | > 4 mM (inactive) |
| O=C(CC1SC(=O)NC1=O)Nc1nccs1 (stereo not drawn) | > 4 mM (inactive) |
| CN(C)S(=O)(=O)c1ccc(N2CCOCC2)nc1 | > 4 mM (inactive) |
| O=C(CC1CCCCC1)N1CCN(c2ccccn2)CC1 | > 4 mM (inactive) |
| COc1c(C)c2c(c(O)c1C/C=C(\C)CCC(=O)O)C(=O)OC2 | > 4 mM (inactive) |
| O=C(Oc1ccc2c(c1)CCC2)N1CCOCC1 | > 4 mM (inactive) |
| Cc1nc2ccc(C(=O)O)cc2[nH]1 | > 4 mM (inactive) |
| O=C(OCc1c(Cl)cccc1Cl)c1cnccn1 | > 4 mM (inactive) |
| CC1=C(C(N)=O)C(c2ccco2)C(C(N)=O)=C(C)N1 | > 4 mM (inactive) |
| Cc1cccc(C)c1NC(=O)/C=C/C(=O)O | > 4 mM (inactive) |
| COCC(=O)NC1CC(C)(C)NC(C)(C)C1 | > 4 mM (inactive) |
| CC1(O)CC2C=CC1C2 (stereo not drawn) | > 4 mM (inactive) |
| O=C(Nc1nc2ccccc2s1)c1ccc(=O)[nH]n1 | > 4 mM (inactive) |
| O=S1(=O)CCC(NC(=S)N2CCOCC2)C1 (stereo not drawn) | > 4 mM (inactive) |
| O=S1(=O)CCC(NC(=S)Nc2ccccn2)C1 (stereo not drawn) | > 4 mM (inactive) |
| Cc1ccnc(NS(=O)(=O)c2cccs2)c1 | > 4 mM (inactive) |
| CC(=O)NC12CC3CC(C)(C1)CC(NC(C)=O)(C3)C2 | > 4 mM (inactive) |
| N#Cc1nc(N2CCCCC2)nc(N2CCOCC2)n1 | > 4 mM (inactive) |
| NC(=O)c1cccc(Cl)n1 | > 4 mM (inactive) |
| O=C1c2ccccc2-c2ncnc3cccc1c23 | > 4 mM (inactive) |
| COc1ccc(C)cc1S(=O)(=O)NC1CCCC1 | > 4 mM (inactive) |
| COc1cc2c(cc1OC)C1=C(C#N)CCC(=O)N1CC2 | > 4 mM (inactive) |

| SMILES | Kd |
| --- | --- |
| O=C1NC(=O)C2C3C=CC(O3)C12 (stereo not drawn) | > 4 mM (inactive) |
| COc1ccccc1Nc1nncc(=O)[nH]1 | > 4 mM (inactive) |
| COC(=O)C1=C(C)N(Cc2ccco2)C(=O)C1 | > 4 mM (inactive) |
| O=C(O)Cn1cc(C(F)(F)F)ccc1=O | > 4 mM (inactive) |
| O=C(O)C12CC3CC(CC(O)(C3)C1)C2 | > 4 mM (inactive) |
| O=c1[nH]cc(N2CCCCC2)c(=O)[nH]1 | > 4 mM (inactive) |
| CCc1cc(=O)[nH]c(SCC(=O)NCCOC)n1 | > 4 mM (inactive) |
| O=C1Cc2ccccc2N1c1ccccc1 | > 4 mM (inactive) |
| c1ccc2c(c1)ncn2CCn1cnc2ccccc21 | > 4 mM (inactive) |
| O=C(CCc1ccc(O)cc1)c1c(O)cc(O)cc1O | > 4 mM (inactive) |
| Nc1cccc(NC(=O)c2cccs2)c1 | > 4 mM (inactive) |
| c1ccc(Cc2nnc(-c3ccccc3)o2)cc1 | > 4 mM (inactive) |
| CC(=O)c1sc(NC(=O)C=C(C)C)nc1C | > 4 mM (inactive) |
| NCc1csc2ccccc12 | > 4 mM (inactive) |
| O=c1[nH]cc(NC(=S)N2CCOCC2)c(=O)[nH]1 | > 4 mM (inactive) |
| NC(=O)N1CCc2ccccc21 | > 4 mM (inactive) |
| CC1(C)CC2C1CCC1(C)OC2(C)CCC1O (stereo not drawn) | > 4 mM (inactive) |
| O=c1/c(=C/c2cccs2)sc2ncnn12 | > 4 mM (inactive) |
| CCOC(=O)c1cnc2n(c1=O)CCS2 | > 4 mM (inactive) |
| CC(=O)O[C@H]1CC[C@@]2(C)C(C[C@@H](OC(C)=O)[C@@]3(C)C4=CC(=O)O[C@@H](c5ccoc5)[C@]4(C)CCC23)C1(C)C (stereo partly drawn) | > 4 mM (inactive) |
| Cn1nnc2cc(C(=O)N3CCSCC3)ccc21 | > 4 mM (inactive) |
| Cn1c(CO)nc2ccccc21 | > 4 mM (inactive) |
| Cc1cc(C)cc(OC(=O)N2CCOCC2)c1 | > 4 mM (inactive) |
| CC1(C)C(=O)C=C[C@@]2(C)C1C[C@@H](O)[C@]1(C)C2CC[C@@]2(C)[C@H](c3ccoc3)OC(=O)[C@H]3O[C@]321 (stereo partly drawn) | > 4 mM (inactive) |

| SMILES | Kd |
| --- | --- |
| O=C(c1cc2ccccc2o1)N1CCCCCC1 | > 4 mM (inactive) |
| Cn1c(=O)c2ccccc2n(Cc2ccccc2F)c1=O | > 4 mM (inactive) |
| CNC(=O)C(=O)NCc1ccc(C)cc1 | > 4 mM (inactive) |
| CC(C)=CCCC1(C)C=Cc2c(O)c3c(c(CC=C(C)C)c2O1)OC12C(=CCCC1C(C)(C)O[C@@]2(C/C=C(\C)C(=O)O)C(=O)O)C3=O (stereo partly drawn) | > 4 mM (inactive) |
| O=C(c1cccnc1Cl)N1CCOCC1 | > 4 mM (inactive) |
| OCc1ccccc1CN1CCOCC1 | > 4 mM (inactive) |
| O=c1cc(-c2cc(O)c(O)c(O)c2)oc2cc(O)cc(O)c12 | > 4 mM (inactive) |
| COc1cc(OC)c2c(=O)c(-c3ccc4c(c3)OCO4)coc2c1 | > 4 mM (inactive) |
| Cc1occc1C(=O)Nc1nnc(C(F)(F)F)s1 | > 4 mM (inactive) |
| NCCNC(=S)Nc1ccccc1 | > 4 mM (inactive) |
| COc1cc(C)c2c(c1C=O)Oc1c(c(C)c(O)c3c1C(O)OC3=O)OC2=O (stereo not drawn) | > 4 mM (inactive) |
| OC12CC3CC(C1)C1(NCCS1)C(C3)C2 (stereo not drawn) | > 4 mM (inactive) |
| CCSc1nc2ccccc2n1CC(N)=O | > 4 mM (inactive) |
| O=C(Nc1ccc(Cl)cn1)c1cnn2cccnc12 | > 4 mM (inactive) |
| Cc1cc(C)n(/N=C\c2cccs2)c(=O)c1C(N)=O | > 4 mM (inactive) |
| NC(CC(=O)O)c1ccccc1 (stereo not drawn) | > 4 mM (inactive) |
| O=C(O)c1cnc2n(c1=O)CCS2 | > 4 mM (inactive) |
| Cn1nc(C(=O)NC2CCCCC2)c2ccccc2c1=O | > 4 mM (inactive) |
| NC(=O)c1sc2ccccc2c1Cl | > 4 mM (inactive) |
| N[C@@H](Cc1ccc(O)c(O)c1)C(=O)O | > 4 mM (inactive) |
| Cn1ccnc1C(O)c1ccccc1 (stereo not drawn) | > 4 mM (inactive) |
| CO[C@H]1[C@@H](O)[C@@H](C)O[C@H](O[C@H]2CCC3(C)C4CCC5(C)[C@@H](C6=CC(=O)OC6)CC[C@]5(O)[C@@H]4CC[C@]3(O)C2)[C@@H]1O (stereo partly drawn) | > 4 mM (inactive) |
